In ChEMBL document CHEMBL4610067, “Molecular Networking Reveals Serpentinine-Related Bisindole Alkaloids from Picralima nitida, a Previously Well-Investigated Species” (J Nat Prod, 2020):

Experiments:
Plasmodium falciparum = assay: Antimalarial activity against chloroquine-resistant Plasmodium falciparum FcB1/Columbia infected in human erythrocytes assessed as reduction in [3H]-hypoxanthine incorporation pretreated for 24 hrs followed by [3H]-hypoxanthine addition measured after 24 hrs by liquid scintillation counting method; format: functional, organism-based
MRC5 = assay: Growth inhibition of human MRC5 cells after 72 hrs by resazurin dye based spectrophotometric method assay; format: cell-based; settings: MRC5, 72 h

Structure (SMILES)	IC50 (Plasmodium falciparum) [µM]	IC50 (MRC5) [µM]
COC(=O)CCc1c[n+]2c(c3[nH]c4ccccc4c13)C[C@@H]1C(C(=O)OC)=CO[C@@H](C)[C@@H]1C2	3	
C/C=C1/CN2CCc3c([nH]c4ccccc34)[C@@H]2C[C@@H]1[C@H](Cc1c[n+]2c(c3[nH]c4ccccc4c13)C[C@@H]1C(C(=O)OC)=CO[C@@H](C)[C@@H]1C2)C(=O)OC	2.6	> 50
C/C=C1/C[n+]2cc(C[C@H](C(=O)OC)[C@H]3C[C@H]4c5[nH]c6ccccc6c5CCN4C/C3=C/C)c3c([nH]c4ccccc43)c2C[C@@H]1CCO	9.5	> 50
C/C=C1/CN2CCc3c([nH]c4ccccc34)[C@@H]2C[C@@H]1[C@H](Cc1c[n+]2c(c3[nH]c4ccccc4c13)C[C@H](CCO)[C@@H](CC)C2)C(=O)OC	8.7	> 50
C/C=C1/CN2CCc3c([nH]c4ccc(O)cc34)[C@@H]2C[C@@H]1CCO	99	> 50
C/C=C1/CN2CCc3c([nH]c4ccccc34)[C@@H]2C[C@@H]1[C@H](Cc1c[n+]2c(c3[nH]c4ccccc4c13)C[C@@H]1C(C(=O)OC)=CO[C@@H](C)[C@@H]1C2)C(=O)O	5.2	> 50
C/C=C1/C[n+]2ccc3c([nH]c4ccccc43)c2C[C@@H]1CCO	19.5	> 50
